Measured values from patent EP4578449A1, “PHARMACEUTICAL COMBINATION OF FAK INHIBITOR AND MICROTUBULE INHIBITOR AND USE THEREOF” (Inxmed (Nanjing) Co., Ltd., priority 2022, dated 2024).

How the values were obtained:
Type in all cases: cell-based
SK-OV-3 cells [1] = assay: FAK silencing combined with Docetaxel, Calreticulin (ICD target) by flow cytometry; settings: SK-OV-3 cells transfected with FAK siRNA 50 nM for 24 hours, then 1 µM Docetaxel 48 hours; vs control siRNA
Protocol: • 1. FAK silencing combined with Docetaxel promotes apoptosis of ovarian cancer cells […] The siRNA technology was used in the in vitro assay to reduce the expression level of FAK, and combined with Docetaxel for 48 hours; flow cytometry was used to detect apoptosis in control (DMSO) and FAK silenced cells • 2. FAK silencing combined with Docetaxel can effectively promote the production of ICD in ovarian cancer cells SK-OV-3 The siRNA technology was used in the in vitro assay to reduce the expression level of FAK, and combined with Docetaxel for 48 hours. Flow cytometry was used to detect the expression of Calreticulin, the main target of ICD.
Assay antibodies: recombinant Alexa Fluor® 647 fluorescent Anti-Calreticulin antibody (Abcam, ab196159), Annexin V apoptosis detection kit (Invitrogen, A35110).
FAK siRNA was provided by Gene Pharma, and the sequence is shown in the following table: • F: […]; • R: […]
• 1. […] After the transfection for 24 hours, the cells were treated with 0.3 µM or 1 µM of Docetaxel for 48 hours, respectively. The cells were stained using Annexin V kit and detected by flow cytometry. The apoptotic values were counted, compared with those of the control group, and plotted using Graphpad 8.0. […] The cells were fluorescent stained with Calreticulin antibody, and the staining results were analyzed by flow cytometry.

[2] = system: mouse colon cancer CT26 cells; assay: Docetaxel/Eribulin/Paclitaxel and Defactinib: microscopy and CRT/Annexin-V/PI flow cytometry; settings: 48 hours, Defactinib 5 µM, Docetaxel 0.3 µM, Eribulin 0.3 µM, Paclitaxel 6 µM, alone or combined with Defactinib
Protocol: CT26 cells were cultured in monolayer in vitro under the following conditions: RPMI-1640 medium with 10% fetal bovine serum, 37°C, 5% CO2. Trypsin was used for routine digestion and passage treatment two to three times a week. When the cells were in the exponential growth phase and the adherent confluence reached 80%-90%, the cells were harvested and plated.
(§1) CT26 cells were digested with trypsin, and then the cells were collected and counted. Based on the counting results, the cells were diluted with the corresponding complete culture medium to a concentration of 50,000 cells per milliliter. Then the cells were plated in 12-well cell culture plates, with 2 ml of cell suspension per well, i.e., 100,000 cells.
(§2) After plating, the cells were cultured in a 37°C and 5% CO2 incubator.
After 24 hours of plating, the test compounds Docetaxel, Eribulin, Paclitaxel and Defactinib were added to different wells, respectively.
(§3) After 48 hours of drug action, the cells were photographed using a microscope, and then trypsinized and collected for flow cytometry staining.
The cells were washed twice with flow buffer (DPBS + 2% FBS). 0.5 µL of AF647 Anti-Calreticulin Antibody was added to each well, and mixed well. The cells were incubated at 4°C in the dark for 20 min. After washing once with flow buffer, 195 µL of Annexin-V-FITC binding solution was added, and the cells were gently mixed well. 5 µL of Annexin-V-FITC antibody was added. After further mixing, 10 µL of PI dye was added and mixed well. The cells were incubated at room temperature in the dark for 15 min. The cells were then subjected to flow cytometry.
(§4) After the assay, the cell positive rate was analyzed by Flowjo (V10) software.

SK-OV-3 cells [3] = assay: FAK silencing combined with Docetaxel, Annexin V apoptosis by flow cytometry; settings: SK-OV-3 cells transfected with FAK siRNA 50 nM for 24 hours, then 0.3 µM or 1 µM Docetaxel 48 hours; FAK silencing group compared with control siRNA group
[4] = system: mouse breast cancer 4T1 cells; assay: Docetaxel/Eribulin and Defactinib: microscopy and CRT/Annexin-V/PI flow cytometry; settings: 48 hours, Defactinib 5 µM, Docetaxel 0.3 µM, Eribulin 0.1 µM, alone or combined with Defactinib
Protocol: 4T1 cells were cultured in a monolayer in vitro in RPMI-1640 medium with 10% fetal bovine serum in a 37 °C, 5% CO2 incubator. Trypsin was used for routine digestion and passage treatment two to three times a week. When the cells were in the exponential growth phase and the adherent confluence reached 80%-90%, the cells were harvested and plated.
as §1, with “4T1” for “CT26”
as §2
After 24 hours of plating, the test compounds Defactinib, Docetaxel and Eribulin were added to different wells, respectively.
as §3
The cells were washed twice with flow buffer (DPBS + 2% FBS). 0.5 µL of AF647 Anti-Calreticulin Antibody was added to each well, and mixed well. The cells were incubated at 4°C in the dark for 20 min. […]
as §4

colon cancer CT26 cells = assay: CCK8 cell viability assay, Docetaxel with or without IN10018; settings: Mus musculus, 72 hours, Docetaxel alone
Protocol: CT26 cells were cultured with RPMI-1640 (Shanghai Basalmedia, catalog number: L210KJ, batch number: F210916) + 10% FBS (Gibco, catalog number: 10099-141c, batch number: 2158737cp), and passaged twice. When the cells were in good condition, they were placed in a 96-well plate, 3000 cells/well. After the cells were spread for 24 hours, the culture medium containing Docetaxel was added. 10 drug concentrations were set. The first concentration was 30 µM, which was serially diluted 3-fold, and the last one was the control, with the drug concentration of 0. Three compound wells were set for each drug concentration. At the same time, another group of cells was established with the same drug concentration as that in the above method. The difference was that: 5 µM IN10018 was added to each well, the drugs were mixed, and the plate was cultured in a 5% CO2 incubator at 37 °C for 72 hours.
After 72 hours of drug action, the cells were observed under a microscope. 10 µl of CCK8 detection reagent (Cellorlab, classification number: CX001M, batch number: 2571100) was added to each well, and the plate was incubated in a 5% CO2 incubator at 37 °C for 2-4 hours. Then the plate was read using microplate reader OD450 ([…]).

SMILES: CC(=O)O[C@@]12CO[C@@H]1C[C@H](O)[C@@]1(C)C(=O)[C@H](O)C3=C(C)[C@@H](OC(=O)[C@H](O)[C@@H](NC(=O)OC(C)(C)C)c4ccccc4)C[C@@](O)([C@@H](OC(=O)c4ccccc4)[C@H]21)C3(C)C [Docetaxel]
- release and exposure of Calreticulin (SK-OV-3 cells [1]): significantly enhanced
- cell status (cell death) under a microscope [2]: obvious
- apoptosis (Annexin V kit) (SK-OV-3 cells [3]): significantly enhanced
- cell status (cell death) under a microscope [4]: obvious
- IC50 (colon cancer CT26 cells): 190 nM
